Test results published in patent US11976083B2, “Inhibitors of peptidylarginine deiminases” (Gilead Sciences, Inc., priority 2020, dated 2024).

Biological target: T1, human PAD4 (Homo sapiens, UniProt Q9UM07)
T1 construct: human PAD4 (NM_012387), A2-P663, was PCR amplified; His-SUMO (N, cleaved yes); made in house; host or cells: E. coli BL21(DE3)
Experiment: In vitro PAD4 BAEE biochemical assay
Settings: BAEE substrate 3 mM, 5 nM PAD4, 2 mM calcium chloride; geometric mean of multiple experiments
Procedure, shortened: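 Recombinant PAD4 (5 nM final) with 2 mM CaCl2 was preincubated with compound for 30 min at 25 °C in MOPS pH 7.6 buffer with DTT, then reacted with 3 mM BAEE for 2 h at 25 °C. Released ammonia was detected fluorimetrically with o-phthalaldehyde/DTT; IC50 from four-parameter fit, geometric mean of experiments.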

T1 sequence (Q9UM07 2-663): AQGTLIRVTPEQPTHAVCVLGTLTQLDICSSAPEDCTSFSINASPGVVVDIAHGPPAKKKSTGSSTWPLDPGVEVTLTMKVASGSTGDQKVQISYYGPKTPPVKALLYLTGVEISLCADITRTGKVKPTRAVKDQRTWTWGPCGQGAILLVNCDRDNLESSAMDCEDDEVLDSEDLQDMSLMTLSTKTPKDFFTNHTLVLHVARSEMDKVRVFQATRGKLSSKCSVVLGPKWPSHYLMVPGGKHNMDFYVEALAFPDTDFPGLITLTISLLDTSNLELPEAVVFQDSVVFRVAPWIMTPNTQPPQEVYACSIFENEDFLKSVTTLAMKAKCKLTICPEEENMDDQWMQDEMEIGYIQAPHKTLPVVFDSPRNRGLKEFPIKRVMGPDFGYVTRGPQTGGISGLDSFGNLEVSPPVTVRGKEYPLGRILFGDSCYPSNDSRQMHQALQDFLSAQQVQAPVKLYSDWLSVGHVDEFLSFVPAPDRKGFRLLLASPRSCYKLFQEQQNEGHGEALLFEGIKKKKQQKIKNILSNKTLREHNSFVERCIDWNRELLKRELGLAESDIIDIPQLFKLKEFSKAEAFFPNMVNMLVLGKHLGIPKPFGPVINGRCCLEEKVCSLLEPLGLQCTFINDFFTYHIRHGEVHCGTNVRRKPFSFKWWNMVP

IC50 [nM]	Structure (SMILES)
266	COc1cc(C(=O)N2[C@H]3CC[C@@H]2[C@H](N)C3)cc2nc(-c3cc4ccc5nc4n3CCCCCCCC(=O)N(C)[C@@H]5C)c(C)n12 [Example 319, (11~{R})-17-[7-[(1~{R},2~{R},4~{S})-2-amino-7-azabicyclo[2.2.1]heptane-7-carbonyl]-5-methoxy-3-methyl-imidazo[1,2-a]pyridin-2-yl]-10,11-dimethyl-1,10,19-triazatricyclo[10.5.2.0^{15,18}]nonadeca-12(19),13,15(18),16-tetraen-9-one]
14	COc1cc(C(=O)N2[C@H]3CC[C@@H]2[C@H](N)C3)cc2nc(-c3cc4ccc5nc4n3C[C@H]3C[C@@H]3COCCC(=O)N[C@@H]5C)c(C)n12 [Example 323, (3~{S),5~{S},12~{R})-18-[7-[(1~{R},2~{R},4~{S})-2-amino-7-azabicyclo[2.2.1]heptane-7-carbonyl]-5-methoxy-3-methyl-imidazo[1,2-a]pyridin-2-yl]-12-methyl-7-oxa-1,11,20-triazatetracyclo[11.5.2.0^{3,5}.0^{16,19}] icosa-13(20),14,16(19),17-tetraen-10-one]
114	COc1cc(C(=O)N2CC[C@@H](OC)[C@@H](N)C2)cc2nc(-c3cc4ccc5nc4n3CC(F)(F)CCCCC3(CCC3)C(=O)N[C@@H]5C)n(C)c12 [Example 614, (11~{R})-17-[5-[(3~{S},4~ {R})-3-amino-4-methoxy-piperidine-1-carbonyl]-7-methoxy-1-methyl-benzimidazol-2-yl]-3,3-difluoro-11-methyl-spiro[1,10,19-triazatricyclo[10.5.2.0^ {15,18}]nonadeca-12,14,16,18-tetraene-8,1′-cyclobutane]-9-one]
83	COc1cc(C(=O)N2CC[C@@H](OC)[C@@H](N)C2)cc2nc(-c3cc4ccc5nc4n3CCCCCC[C@@H](OC)C(=O)N[C@@H]5C)n(C)c12 [Example 628, (8~{R},11~{R})-17-[5-[(3~ {S},4~{R})-3-amino-4-methoxy-piperidine-1-carbonyl]-7-methoxy-1-methyl-benzimidazol-2-yl]-8-methoxy-11-methyl-1,10,19-triazatricyclo [10.5.2.0^{15,18}] nonadeca-12(19),13,15(18),16-tetraen-9-one]
78	COc1cc(C(=O)N2CC[C@@H](OC)[C@@H](N)C2)cc2nc(-c3cc4ccc5nc4n3CCCCC[C@H]3C[C@H]3C(=O)N[C@@H]5C)n(C)c12 [Example 525, (2~{R},5~{R},7~ {S})-14-[5-[(3~{S},4~{R})-3-amino-4-methoxy-piperidine-1-carbonyl]-7-methoxy-1-methyl-benzimidazol-2-yl]-2-methyl-3,13,19-triazatetracyclo [11.5.2.0^{5,7}.0^{16,20}] icosa-1(19),14,16(20), 17-tetraen-4-one]
91	COc1cc(C(=O)N2C[C@H]3OC[C@@H]2[C@@H]3N)cc2nc(-c3cc4ccc5nc4n3CCCCCCC(C)(C)C(=O)N[C@@H]5C)n(C)c12 [Example 708, (11~{R})-17-[5-[(1~{R},4~{S), 7~{S})-7-amino-2-oxa-5-azabicyclo[2.2.1]heptane-5-carbonyl]-7-methoxy-1-methyl-benzimidazol-2-yl]-8,8,11-trimethyl-1,10,19-triazatricyclo[10.5.2.0^ {15,18}]nonadeca-12(19),13,15(18),16-tetraen-9-one]
66	C[C@H]1NC(=O)c2ccccc2CC[C@@H]2C[C@H]2Cn2c(-c3nc4cc(C(=O)N[C@H]5CNCC[C@@H]5F)c(F)cc4n3C3CC3)cc3ccc1nc32 [Example 348, 1-cyclopropyl-6-fluoro-~{N}-[(3~{S},4~{S})-4-fluoro-3-piperidyl]-2-[(3~{R},5~{R},16~{R})-16-methyl-14-oxo-1,15,24-triazapentacyclo[15.5.2.0^{3,5}.0^{8,13}.0^ {20,23}]tetracosa-8,10,12,17(24),18,20(23),21-heptaen-22-yl]benzimidazole-5-carboxamide]
23	COc1cc(C(=O)N2[C@H]3CC[C@@H]2[C@H](N)C3)cc2nc(-c3cc4ccc5nc4n3CCCCCc3ccccc3C(=O)N[C@@H]5C)n(C)c12 [Example 39, (2~{R})-17-[5-[(1~{R},2~{R),4~{S})-2-amino-7-azabicyclo[2.2.1]heptane-7-carbonyl]-7-methoxy-1-methyl-benzimidazol-2-yl]-2-methyl-3,16,22-triazatetracyclo[14.5.2.0^{5,10}.0^{19,23}] tricosa-1(22),5,7,9,17,19(23),20-heptaen-4-one]
80	COc1cc(C(=O)N[C@@H]2CCCCNC2)cc2nc(-c3cc4ccc5nc4n3CCCCCCC(C)(C)C(=O)N[C@@H]5C)n(C)c12 [Example 78, ~{N}-[(3~{R})-azepan-3-yl]-7-methoxy-1-methyl-2-[(11~{R})-8,8,11-trimethyl-9-oxo-1,10,19-triazatricyclo[10.5.2.0^{15,18}]nonadeca-12(19),13,15(18),16-tetraen-17-yl]benzimidazole-5-carboxamide]
35	COc1cc(C(=O)N2CC[C@@H](OC)[C@@H](N)C2)cc2nc(-c3cc4ccc5nc4n3CCCCCc3nc4ccsc4cc3C(=O)N[C@@H]5C)n(C)c12 [Example 788, (2~{R})-20-[5-[(3~{S),4~{R})-3-amino-4-methoxy-piperidine-1-carbonyl]-7-methoxy-1-methyl-benzimidazol-2-yl]-2-methyl-8-thia-3,12,19,25-tetrazapentacyclo[17.5.2.0^ {5,13).0^{7,11}.0^{22,26}] hexacosa-1(24),5(13), 6,9,11,20,22,25-octaen-4-one]
86	COc1cc(C(=O)N2C[C@H]3C[C@@H]2[C@@H]3N)cc2nc(-c3cc4ccc5nc4n3CC(F)(F)CCC[C@@H]3C[C@H]3C(=O)N[C@@H]5C)n(C)c12 [Example 666, (2~{R},5~{R},7~{R})-14-[5-[(1~{R},4~{R},5~{R})-5-amino-2-azabicyclo [2.1.1]hexane-2-carbonyl]-7-methoxy-1-methyl-benzimidazol-2-yl]-11,11-difluoro-2-methyl-3,13,19-triazatetracyclo [11.5.2.0^{5,7}.0^{16,20}] icosa-1(19),14,16(20),17-tetraen-4-one]
55	COc1cc(C(=O)N2CCC[C@@H](N)C2)cc2nc(-c3cc4ccc5nc4n3C[C@H]3C[C@@H]3[C@@H](C)OCCC(=O)N[C@@H]5C)n(C)c12 [Example 162, (3~{S),5~{S},6~{R},12~{R})-18-[5-[(3~{R})-3-aminopiperidine-1-carbonyl]-7-methoxy-1-methyl-benzimidazol-2-yl]-6,12-dimethyl-7-oxa-1,11,20-triazatetracyclo[11.5.2.0^{3,5}.0^{16,19}] icosa-13(20),14,16(19),17-tetraen-10-one]
72	COc1cc(C(=O)N2CCC[C@@H](N)C2)cc2nc(-c3cc4ccc5nc4n3CCCOC[C@H]3C[C@H]3C(=O)N[C@@H]5C)n(C)c12 [Example 308, (2~{R},5~{R},7~{S})-14-[5-[(3~{R})-3-aminopiperidine-1-carbonyl]-7-methoxy-1-methyl-benzimidazol-2-yl]-2-methyl-9-oxa-3,13,19-triazatetracyclo[11.5.2.0^{5,7}.0^{16,20}] icosa-1(19),14,16(20),17-tetraen-4-one]
40	C[C@H]1NC(=O)[C@@H]2C[C@@H]2CCCCCn2c(-c3nc4cc(C(=O)N[C@H]5CNCC[C@@H]5F)c(F)cc4n3C)cc3ccc1nc32 [Example 522, 6-fluoro-~{N}-[(3~ {S},4~{S})-4-fluoro-3-piperidyl]-1-methyl-2-[(2~{R},5~{R},7~{S})-2-methyl-4-oxo-3,13,19-triazatetracyclo[11.5.2.0^ {5,7).0^{16,20}]icosa-1(19),14,16(20), 17-tetraen-14-yl] benzimidazole-5-carboxamide]
38	COc1cc(C(=O)N[C@H]2CNCC[C@@H]2F)cc2nc(-c3cc4ccc5nc4n3C/C=C(/F)COCCC(=O)N[C@@H]5C)n(C)c12 [Example 619, 2-[(3~{E},11~{R})-4-fluoro-11-methyl-9-oxo-6-oxa-1,10,19-triazatricyclo[10.5.2.0^ {15,18}]nonadeca-3,12(19),13,15(18), 16-pentaen-17-yl]- ~{N}-[(3~{S},4~{S})-4-fluoro-3-piperidyl]-7-methoxy-1-methyl-benzimidazole-5-carboxamide]
36	COc1cc(C(=O)N2[C@H]3CC[C@@H]2[C@H](N)C3)cc2nc(-c3cc4ccc5nc4n3CCCCOCC(=O)N[C@@H]5C)c(C)n12 [Example 324, (10~{R})-16-[7-[(1~{R},2~{R},4~{S})-2-amino-7-azabicyclo[2.2.1]heptane-7-carbonyl]-5-methoxy-3-methyl-imidazo[1,2-a]pyridin-2-yl]-10-methyl-6-oxa-1,9,18-triazatricyclo[9.5.2.0^{14,17}]octadeca-11(18),12,14(17),15-tetraen-8-one]
10	C[C@@H]1[C@H](N)CCCN1C(=O)c1cc(F)c2c(c1)nc(-c1cc3ccc4nc3n1CC(F)(F)CCC[C@@H]1C[C@H]1C(=O)N[C@@H]4C)n2[C@@H]1C[C@@H]1F [Example 747, (2~{R},5~{R},7~{R})-14-[5-[(2~{R},3~{R})-3-amino-2-methyl-piperidine-1-carbonyl]-7-fluoro-1-[(1~{R},2~{S})-2-fluorocyclopropyl]benzimidazol-2-yl]-11,11-difluoro-2-methyl-3,13,19-triazatetracyclo [11.5.2.0^{5,7}.0^{16,20}] icosa-1(19),14,16(20),17-tetraen-4-one]
37	COc1cc(C(=O)N2C[C@H](N)[C@@H]3CC[C@H]2C3)cc2nc(-c3cc4ccc5nc4n3CCCCCC[C@](F)(c3cccc(Cl)n3)C(=O)N[C@@H]5C)n(C)c12 [Example 888, (8~{S},11~{R})-17-[5-[(1~{S},4~{R},5~{R})-4-amino-2-azabicyclo[3.2.1]octane-2-carbonyl]-7-methoxy-1-methyl-benzimidazol-2-yl]-8-(6-chloro-2-pyridyl)-8-fluoro-11-methyl-1,10,19-triazatricyclo[10.5.2.0^ {15,18}]nonadeca-12(19), 13,15(18),16-tetraen-9-one]
